The values that follow are results of earlier work, collected in publication PMC10766353, “Oral FXIIa inhibitor KV998086 suppresses FXIIa and single chain FXII mediated kallikrein kinin system activation” (Frontiers in Pharmacology, 2023).

Data set [1] deals with HAE attacks. Set-up: method as in Craig et al., 2023. Particulars: six-month study, ref Craig et al., 2023.
The test system of data set [2] is HAE attacks. Set-up: method as in Banerji et al., 2018. Particulars: 26-week phase 3 study; ref Banerji et al., 2018.

Like-named read-outs stand apart in the source and are kept apart here.

As to “garadacimab: a monoclonal antibody that inhibits FXIIa”, the HAE attack reduction in data set [1] (monthly administration) is listed as 87%. Besides, the patients attack free in data set [1] was 62%.

B1: lanadelumab: monoclonal antibody PKa inhibitor (antibody, chains of the INN, looked up, V domains shown)
VH: EVQLLESGGGLVQPGGSLRLSCAASGFTFSHYIMMWVRQAPGKGLEWVSGIYSSGGITVYADSVKGRFTISRDNSKNTLYLQMNSLRAEDTAVYYCAYRRIGVPRRDEFDIWGQGTMVTVSS
VL: DIQMTQSPSTLSASVGDRVTITCRASQSISSWLAWYQQKPGKAPKLLIYKASTLESGVPSRFSGSGSGTEFTLTISSLQPDDFATYYCQQYNTYWTFGQGTKVEIK
With B1, in data set [2], the HAE attack reduction is on record as 87% and the patients attack free was 44%.
